# Results published in patent US5859004A, “Use of heterocyclic compounds for the treatment of conditions caused by malfunctioning of the nicotinic cholinergic system” (Novo Nordisk A/S, priority 1995, dated 1999).
# Like-named read-outs stand apart in the source and are kept apart here.
# Columns and labels:
# [1] = target: T1, nicotinic acetylcholine receptors (rat cortical receptors) (Rattus norvegicus, UniProt P09483+P12390); assay: Inhibition of specific binding of ^3 H-methylcarbamylcholine (^3 H-MCC); conditions: for Ratio Oxo/MCC: IC50 ^3 H-Oxo / IC50 ^3 H-MCC, selectivity nicotinic over muscarinic; for IC50: rat cortical receptors, ^3 H-MCC 2 nM, 0° C., 60 min
# T1 construct: Fresh or frozen rat, brain tissue (hippocampus or cortex) was homogenized; from tissue; host or cells: rat brain tissue (hippocampus or cortex)
# Excerpt: The pharmacological properties of the compounds of the invention can be illustrated by determining their capability to inhibit the specific binding of ^3 H-methylcarbamylcholine (^3 H-MCC) (Abood and Grassi, Biochem. Pharmacol., Vol. 35, pp. 4199--4202, (1986)).
# ^3 H-MCC labels the nicotinic receptors in the CNS. The inhibitory effect on ^3 H-MMC binding reflects the affinity for nicotinic acetylcholine receptors.
# Fresh or frozen rat, brain tissue (hippocampus or cortex) was homogenized in assay buffer (50 mM Tris-HCl, pH 7.4, 120 mM NaCl, 5 mM KCl, 2 mM CaCl2, 1 mM MgCl2) and centrifuged for 10 min. at 40.000×g. Pellets were subsequently reconstituted in assay buffer and an appropriate amount of tissue sample was mixed in tubes with ^3 H-methylcarbamylcholine (NEN, NET-951; final concentration 2 nM) and test drug. The tubes were incubated at 0° C. for 60 min. Unbound ligand was separated from bound ligand by vacuum filtration through GF/B filters presoaked in 0.5% polyethylenimine. Filters were washed three times with 5 ml wash buffer (50 mM Tris-HCl, pH 7.4) and transferred to vials. 4 ml scintillation fluid was added and the radioactivity was measured by scintillation counting. Unspecific binding was measured with 10 μM nicotine.
# The IC50 values of the test compounds were determined by nonlinear regression analyses (GraphPad InPlot).
# Table I illustrates the affinity of the compounds of the present invention for nicotinic and muscarinic receptors as determined by ^3 H-MCC and ^3 H-Oxo binding to rat cortical receptors. The compounds, however, show selective affinity for nicotinic receptors as compared to muscarinic receptors, i.e OXO/MCC>1.
# [2] = target: muscarinic acetylcholine receptors (rat cortical receptors); assay: Inhibition of specific binding of ^3 H-Oxotremorine-M (^3 H-Oxo); conditions: rat cortex; ^3 H-Oxotremorine 1.0 nM, 25° C., 30 min
# Excerpt: Furthermore, the pharmacological properties of the compounds of the invention can also be illustrated by determining their capability to inhibit the specific binding of ^3 H-Oxotremorine-M (^3 H-Oxo). Birdsdall N. J. M., Hulme E. C., and Burgen A. S. V. (1980). "The Character of Muscarinic Receptors in Different Regions of the Rat Brain". Proc. Roy. Soc. London (Series B) 207,1.
# ^3 H-Oxo labels muscarinic receptor in the CNS (with a preference for agonist domains of the receptors). Three different sites are labelled by ^3 H-Oxo. […] Using the present experimental conditions only the high and medium affinity sites are determined.
# The inhibitory effects of compounds on ^3 H-Oxo binding reflects the affinity for muscarinic acetylcholine receptors.
# All preparations are performed at 0°-4° C. unless otherwise indicated. Fresh cortex (0.1-1 g) from male Wistar rats (150-250 g) is homogenized for 5-10 s in 10 ml 20 mM Hepes pH: 7.4, with an Ultra-Turrax homogenizer. The homogenizer is rinsed with 10 ml of buffer and the combined suspension centrifuged for 15 min. at 40,000×g. The pellet is washed three times with buffer. In each step the pellet is homogenized as before in 2×10 ml of buffer and centrifuged for 10 min. at 40,000×g.
# The final pellet is homogenized in 20 mM Hepes pH: 7.4 (100 ml per g of original tissue) and used for binding assay. Aliquots of 0.5 ml is added 25 μl of test solution and 25 μl of ^3 H-Oxotremorine (1.0 nM, final concentration) mixed and incubated for 30 min. at 25° C. Non-specific binding is determined in triplicate using arecoline (1 μg/ml, final concentration) as the test substance. After incubation samples are added 5 ml of ice-cold buffer and poured directly onto Whatman GF/C glass fiber filters under suction and immediately washed 2 times with 5 ml of ice-cold buffer. The amount of radioactivity on the filters are determined by conventional liquid scintillation counting. Specific binding is total binding minus non specific binding.
# Test substances are dissolved in 10 ml water (if necessary heated on a steam-bath for less than 5 min.) at a concentration of 2.2 mg/ml. 25-75% inhibition of specific binding must be obtained before calculation of IC50. The test value will be given as IC50 (the concentration (nM) of the test substance which inhibits the specific binding of ^3 H-Oxo by 50%).
# IC50 =(applied test substance concentration)×(Cx /Co
# where Co is specific binding in control assays and Cx is the specific binding in the test assay. (The calculations assume normal mass-action kinetics).
# Table I illustrates the affinity of the compounds of the present invention for nicotinic and muscarinic receptors as determined by ^3 H-MCC and ^3 H-Oxo binding to rat cortical receptors. […]
# [3] = target: muscarinic acetylcholine receptors (rat cortical receptors); conditions: read-out: affinity of site labelled by ^3 H-Oxo, cited from earlier work
# nicotinic = conditions: age related; cited from earlier work
# healthy humans = conditions: cited from earlier work
# [4] = tested on: Alzheimer's disease patients; conditions: cited from earlier work
# substantia nigra = conditions: chronic nicotine; lesioning; cited from earlier work
# Tourette's syndrome = conditions: in vivo; cited from earlier work
# dopamine release = conditions: nucleus accumbens versus striatum; cited from earlier work
# dopaminergic effects = conditions: various behavioral models; cited from earlier work
# T1 sequence (P09483 31-630): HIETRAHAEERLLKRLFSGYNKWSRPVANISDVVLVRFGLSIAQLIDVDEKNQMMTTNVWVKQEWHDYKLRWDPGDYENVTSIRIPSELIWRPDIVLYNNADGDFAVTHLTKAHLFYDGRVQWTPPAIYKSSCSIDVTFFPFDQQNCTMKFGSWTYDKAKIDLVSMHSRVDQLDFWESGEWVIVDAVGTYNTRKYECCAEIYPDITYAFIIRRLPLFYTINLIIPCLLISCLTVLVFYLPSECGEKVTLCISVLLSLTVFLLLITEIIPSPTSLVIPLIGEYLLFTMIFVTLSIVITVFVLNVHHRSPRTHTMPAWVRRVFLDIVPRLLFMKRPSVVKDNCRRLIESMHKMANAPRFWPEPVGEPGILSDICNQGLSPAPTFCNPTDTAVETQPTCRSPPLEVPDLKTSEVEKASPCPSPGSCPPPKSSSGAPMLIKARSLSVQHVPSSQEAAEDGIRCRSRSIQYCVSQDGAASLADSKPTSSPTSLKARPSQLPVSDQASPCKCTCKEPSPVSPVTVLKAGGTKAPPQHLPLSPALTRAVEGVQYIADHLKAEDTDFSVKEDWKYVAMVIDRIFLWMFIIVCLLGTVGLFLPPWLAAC
# T1 sequence (P12390 25-500): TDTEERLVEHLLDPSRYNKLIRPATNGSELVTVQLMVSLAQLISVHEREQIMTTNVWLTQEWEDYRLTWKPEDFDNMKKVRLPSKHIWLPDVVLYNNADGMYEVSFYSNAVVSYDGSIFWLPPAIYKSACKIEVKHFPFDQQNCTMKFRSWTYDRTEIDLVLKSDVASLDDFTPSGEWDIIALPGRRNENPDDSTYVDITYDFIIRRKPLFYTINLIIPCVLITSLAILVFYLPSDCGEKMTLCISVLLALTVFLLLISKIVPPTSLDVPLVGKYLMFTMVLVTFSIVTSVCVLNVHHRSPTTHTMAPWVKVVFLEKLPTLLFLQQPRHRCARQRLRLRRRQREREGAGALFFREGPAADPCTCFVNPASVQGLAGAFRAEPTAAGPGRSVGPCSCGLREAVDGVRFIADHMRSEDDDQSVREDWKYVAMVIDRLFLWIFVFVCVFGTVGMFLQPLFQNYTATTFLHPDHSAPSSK
SMILES,Ratio Oxo/MCC [1],IC50 [1] [nM],IC50 [2] [nM],other results
"Cc1cc(/C=C2/CN3CCCC2C3)on1.O=C(O)C(=O)O (stereo not shown) [Compound 4, (E)-6-(3-methyl-5-isoxazolyl)methylene-1-azabicyclo[3.2.1]octane oxalate]",22.1,81,1780,–
"C[N+](C)(C)CC#CCN1CCCC1=O [^3 H-Oxo, ^3 H-Oxotremorine-M]",–,–,–,"Kd ([3]; high affinity site): 1.8 nM; Kd ([3]; medium affinity site): 20 nM; Kd ([3]; third (lowest affinity) site, not determined under the present conditions): 3000 nM"
"Cc1cc(/C=C2\CN3CCCC2C3)on1.O=C(O)C(=O)O (stereo not shown) [Compound 3, (Z)-6-(3-methyl-5-isoxazolyl)methylene-1-azabicyclo[3.2.1]octane oxalate]",5.9,161,953,–
"Cc1cc(/C=C2\CN3CCC2C3)on1.O=C(O)C(=O)O (stereo not shown) [Compound 5, (Z)-3-(3-methyl-5-isoxazolyl)methylene-1-azabicyclo[2.2.1]heptane oxalate]",17.2,25,430,–
"Cc1cc(/C=C2/CN3CCC2C3)on1.O=C(O)C(=O)O (stereo not shown) [Compound 6, (E)-3-(3-methyl-5-isoxazolyl)methylene-1-azabicyclo[2.2.1]heptane oxalate]",55.0,20,1100,–
CNC1(C)C2CCC(C2)C1(C)C (stereo not shown) [mecamylamine],–,–,–,cognitive impairment (nicotinic): cause cognitive impairment in an age related way
CN1CCCC1c1cccnc1 (stereo not shown) [nicotine],–,–,–,attention and memory (healthy humans): improved attention and memory; attention and memory [4]: improved attention and memory; protection against cell loss in the substantia nigra (substantia nigra): may protect against cell loss in the substantia nigra caused by lesioning; effects in Tourette's syndrome (Tourette's syndrome): beneficial effects in Tourette's syndrome; dopamine release (dopamine release): stimulates dopamine release in the nucleus accumbens more potently than in striatum; potentiation of dopaminergic effects (dopaminergic effects): will potentiate dopaminergic effects in various behavioral models
